Data from patent publication US10131652B2, “Pyrimidinyloxy benzene derivatives as herbicides” (E. I. DU PONT DE NEMOURS AND COMPANY, priority 2014, dated 2018).

Key:
Assay in all cases: Test C flooded paddy test plant response
Type in all cases: in vivo
rice (Oryza sativa) = conditions: Oryza sativa; Flood, 250 g ai/ha; scale of 0 to 100 where 0 is no effect and 100 is complete control; 13 to 15 days; read-out: Rice plant response rating
Method in brief: (§1)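 Scale 0 (no effect) to 100 (complete control), assigned visually versus controls after 13–15 d greenhouse. Application: directly to paddy water, 3 cm flood depth kept constant, 2-leaf stage.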

[1] = test system: small-flower umbrella sedge (Cyperus difformis); conditions: Cyperus difformis; Flood, 250 g ai/ha; scale of 0 to 100 where 0 is no effect and 100 is complete control; 13 to 15 days; read-out: Sedge, Umbrella plant response rating
Method in brief: as §1

[2] = test system: barnyardgrass (Echinochloa crus-galli); conditions: Echinochloa crus-galli; Flood, 250 g ai/ha; scale of 0 to 100 where 0 is no effect and 100 is complete control; 13 to 15 days; read-out: Barnyardgrass plant response rating
Method in brief: as §1

[3] = test system: ducksalad (Heteranthera limosa); conditions: Heteranthera limosa; Flood, 250 g ai/ha; scale of 0 to 100 where 0 is no effect and 100 is complete control; 13 to 15 days; read-out: Ducksalad plant response rating
Method in brief: as §1

| Compound | plant injury at 250 g/ha (rice (Oryza sativa)) [%] | pest or weed control at 250 g/ha [1] [%] | pest or weed control at 250 g/ha [2] [%] | pest or weed control at 250 g/ha [3] [%] |
| --- | --- | --- | --- | --- |
| FC(F)(F)c1nccc(-c2ccccc2Oc2ncc(Br)cn2)n1 [Compound 21, 4-[2-[(5-bromo-2-pyrimidinyl)oxy]phenyl]-2-(trifluoromethyl)pyrimidine] | 0 | 0 | 0 | 0 |
| Cc1ccc(Oc2ncc(Cl)cn2)c(-c2ccc(C(F)(F)F)nc2)c1 [Compound 22, 5-chloro-2-[4-methyl-2-[6-(trifluoromethyl)-3-pyridinyl]phenoxy]pyrimidine] | 0 | 0 | 0 | 0 |
| Clc1ccc(-c2c(Cl)cccc2Oc2ncc(Cl)cn2)nc1 [Compound 23, 5-chloro-2-[3-chloro-2-(5-chloro-2-pyridinyl)phenoxy]pyrimidine] | 0 | 40 | 0 | 60 |
| Cc1ccc(Oc2ncc(Cl)cn2)c(-c2ccnc(C(F)(F)F)c2)c1 [Compound 24, 5-chloro-2-[4-methyl-2-[2-(trifluoromethyl)-4-pyridinyl]phenoxy]pyrimidine] | 0 | 40 | 0 | 0 |
| FC(F)(F)c1ccnc(-c2ccccc2Oc2ncc(Cl)cn2)c1 [Compound 25, 5-chloro-2-[2-[4-(trifluoromethyl)-2-pyridinyl]phenoxy]pyrimidine] | 0 | 20 | 0 | 30 |
| FC(F)(F)c1ccc(-c2ccccc2Oc2ncc(Cl)cn2)nc1 [Compound 27, 5-chloro-2-[2-[5-(trifluoromethyl)-2-pyridinyl]phenoxy]pyrimidine] | 0 | 40 | 0 | 30 |
| FC(F)(F)Oc1ccc(-c2ccccc2Oc2ncc(Cl)cn2)cc1 [Compound 42, 5-chloro-2-[[4′-(trifluoromethoxy)[1,1′-biphenyl]-2-yl]oxy]pyrimidine] | 0 | 0 | 0 | 0 |
